Here are results for 16 compounds from ChEMBL document CHEMBL3879904, “Selective sphingosine 1 phosphate receptor modulators and methods of chiral synthesis” (2013).

Each structure is given as a SMILES string.

Series [1] is described as follows: Toxicity in Sprague-Dawley rat assessed as dose required to produce 10% increase in lung to terminal body weight ratio administered orally via gavage for 5 to 14 days measured 24 hrs post last dose. The following applies: in vivo, po.
For series [2], the system named is Rattus norvegicus. Briefly: Antiinflammatory activity in Sprague-Dawley rat assessed as dose required to produce 50% lymphopenia administered orally via gavage for 3 to 5 days measured 24 hrs post last dose. It is filed as functional.
Series [3] is described as follows: Therapeutic index, ratio of dose required to produce 10% increase in lung to terminal body weight ratio administered for 14 days to dose required to produce 50% lymphopenia in Sprague-Dawley rat. The following applies: in vivo, read-out: TI.
Series [4] concerns the target Sphingosine 1-phosphate receptor 1 (Homo sapiens, UniProt P21453). The series is described as follows: Agonist activity at human S1P1 expressed in CRE-bla CHOK1 cells assessed as inhibition of forskolin-induced cAMP formation preincubated for 4 hrs followed by FRET-based beta-lactamase fluorescent substrate addition measured after 2 hrs. It is filed as functional, cell-based, CHO-K1. For orientation: Changes in cAMP serve as a functional read-out for many G protein-coupled receptors.

For series [5], the system named is Mus musculus. Briefly: Antiinflammatory activity in Influenza A virus (A/WSN/33) infected C57Bl/6 mouse model assessed as suppression of inflammatory cell infiltration into lungs at 0.5 mg/kg administered intratracheally 1 hr post viral infection measured after 48 hrs relative to control. It is filed as functional. The following applies: C57Bl/6, inhaled or nasal.

Series [6] is described as follows: Oral bioavailability in Sprague-Dawley rat at 2 mg/kg administered via gavage by HPLC-LC/MS/MS method. It is filed as ADME, organism-based. The conditions noted are these: in vivo.
Series [7] has as its system Mus musculus. Briefly: Antiinflammatory activity in C57BL6 mouse assessed as induction of lymphopenia by measuring CD4 or CD8-positive T cell levels at 1 mg/kg, po administered via gavage measured over 24 hrs by FACS analysis relative to control. It is filed as functional.

Sphingosine 1-phosphate receptor 1, sequence (P21453 whole entry): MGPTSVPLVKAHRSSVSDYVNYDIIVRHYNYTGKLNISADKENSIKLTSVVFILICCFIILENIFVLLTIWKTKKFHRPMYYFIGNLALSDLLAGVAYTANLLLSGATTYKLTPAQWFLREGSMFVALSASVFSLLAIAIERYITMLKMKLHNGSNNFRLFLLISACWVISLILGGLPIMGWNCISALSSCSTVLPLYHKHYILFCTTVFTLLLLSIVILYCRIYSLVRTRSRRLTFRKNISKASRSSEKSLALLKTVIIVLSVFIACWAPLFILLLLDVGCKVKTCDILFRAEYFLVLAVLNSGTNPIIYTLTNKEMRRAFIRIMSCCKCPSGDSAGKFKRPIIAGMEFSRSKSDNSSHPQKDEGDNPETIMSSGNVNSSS

In the case of `CC(C)Oc1ccc(-c2nc(-c3cccc4c3CC[C@@H]4NC(=O)N3CC(O)C3)no2)cc1C#N`, the Activity in series [1] turned out to be 11.3 mg/kg; in series [2], 2 mg/kg.

For the compound `CC(C)Oc1ccc(-c2nc(-c3cccc4c3CC[C@H]4NS(=O)(=O)CCO)no2)cc1C#N`, the values for the Activity in series [1] and in series [2] were 1.1 mg/kg and 0.07 mg/kg, respectively.

As for `CC(C)Oc1ccc(-c2nc(-c3cccc4c3CC[C@@H]4NS(=O)(=O)CCO)no2)cc1C#N`, the Activity in series [1] came out at 5 mg/kg; in series [2], 0.5 mg/kg.

For `CC(C)Oc1ccc(-c2nc(-c3cccc4c3CC[C@@H]4N)no2)cc1C#N`, the Activity was found to be 2 mg/kg in series [1] and 0.1 mg/kg in series [2].

As for `CC(C)Oc1ccc(-c2nc(-c3cccc4c3CC[C@H]4N)no2)cc1C#N.Cl`, the Activity in series [1] is 0.2 mg/kg; in series [2], 0.1 mg/kg. Further, the selectivity ratio at 336 h in series [3] was 2.

For `CC(C)Oc1ccc(-c2nc(-c3cccc4c3CC[C@@H]4NC(=O)N(C)C)no2)cc1C#N`, the EC50 in series [4] is 0.05 to 0.5 nM.

For `CC(C)Oc1ccc(-c2nc(-c3cccc4c3CC[C@H]4NC(=O)N3CC(O)C3)no2)cc1C#N`, the figures for the Activity in series [1] and in series [2] were 21.3 mg/kg and 0.9 mg/kg, respectively.

Turning to `CC(C)Oc1ccc(-c2nc(-c3cccc4c3CC[C@H]4NCC(=O)N(C)C)no2)cc1C#N.Cl`, the Activity came to 5.5 mg/kg in series [1] and 0.4 mg/kg in series [2].

For `CC(C)Oc1ccc(-c2nc(-c3cccc4c3CC[C@@H]4NCC(=O)N(C)C)no2)cc1C#N`, the Activity in series [1] and in series [2] was 0.3 mg/kg each time.

Take `CC(C)Oc1ccc(-c2nc(-c3cccc4c3CC[C@H]4NCC(=O)N3CCOCC3)no2)cc1C#N`: the half-maximal effective concentration (EC50) in series [4] fell in the range of 0.05 to 0.5 nM.

For `COCCS(=O)(=O)N[C@H]1CCc2c(-c3noc(-c4ccc(OC(C)C)c(C#N)c4)n3)cccc21`, the Activity in series [1] came out at 5 mg/kg; in series [2], 0.25 mg/kg.

Regarding `COCCS(=O)(=O)N[C@@H]1CCc2c(-c3noc(-c4ccc(OC(C)C)c(C#N)c4)n3)cccc21`, the Activity in series [1] is 2.1 mg/kg; in series [2], 0.07 mg/kg.

On to `CC(C)Oc1ccc(-c2nc(-c3cccc4c3CC[C@H]4NC(=O)c3ccc(Br)cc3)no2)cc1C#N`, for which, in series [4], the EC50 was greater than 5 nM.

Take `CC(C)Oc1ccc(-c2nc(-c3cccc4c3CC[C@H]4NCCO)no2)cc1C#N`: the Activity in series [1] turned out to be 2.8 mg/kg; in series [2], 0.15 mg/kg. In addition, in series [5], the inhibition in vivo at 0.5 mg/kg was 40%.

In series [6], `CCOc1ccc(-c2nc(-c3cccc4c3CCC4NCCO)no2)cc1OCC` (racemic) had a bioavailability of 21%. The AUEC in series [7] is reported as 116%.

As for `CC(C)Oc1ccc(-c2nc(-c3cccc4c3CC[C@@H]4NCCO)no2)cc1C#N` [OZANIMOD], the Activity was determined as 2.7 mg/kg in series [1] and 0.15 mg/kg in series [2].

The EC50 is the concentration needed to bring the measured effect to its halfway point. Broadly, the inhibition in vivo is the percentage by which the read-out fell short of the control. As a reminder, the bioavailability is dose-corrected exposure relative to a reference, in per cent. Read a high bioavailability as much systemic uptake.
